Source: ChEMBL document CHEMBL4507311, “Data for DCP probe A-1155463” (2021)

Experiments:
[1] = target: T1, Alpha-2A adrenergic receptor (Homo sapiens) (UniProt P08913); conditions: Compound concentration 10.0 uM
T1 sequence (whole entry): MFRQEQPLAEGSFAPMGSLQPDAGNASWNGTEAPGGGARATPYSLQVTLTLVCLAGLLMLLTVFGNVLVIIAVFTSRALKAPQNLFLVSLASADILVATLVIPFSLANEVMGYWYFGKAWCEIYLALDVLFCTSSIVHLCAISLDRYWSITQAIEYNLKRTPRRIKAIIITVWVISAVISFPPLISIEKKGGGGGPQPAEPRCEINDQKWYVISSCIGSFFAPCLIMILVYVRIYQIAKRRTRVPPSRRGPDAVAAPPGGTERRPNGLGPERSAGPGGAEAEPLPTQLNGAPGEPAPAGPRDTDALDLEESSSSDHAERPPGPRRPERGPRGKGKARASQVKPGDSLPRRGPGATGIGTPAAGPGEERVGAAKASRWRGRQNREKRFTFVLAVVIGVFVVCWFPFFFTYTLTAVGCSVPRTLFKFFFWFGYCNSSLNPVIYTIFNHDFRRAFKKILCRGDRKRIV

[2] = target: Serine/threonine-protein kinase WNK2 (Homo sapiens) (UniProt Q9Y3S1); conditions: Compound concentration 1000.0 nM
[3] = target: Mast/stem cell growth factor receptor Kit (Homo sapiens) (UniProt P10721); conditions: Compound concentration 1000.0 nM
[4] = target: Activin receptor type-2A (Homo sapiens) (UniProt P27037); conditions: Compound concentration 1000.0 nM
[5] = target: Inhibitor of nuclear factor kappa-B kinase subunit alpha (Homo sapiens) (UniProt O15111); conditions: Compound concentration 1000.0 nM
[6] = target: Dual specificity mitogen-activated protein kinase kinase 1 (Homo sapiens) (UniProt Q02750); conditions: Compound concentration 1000.0 nM
[7] = test system: Phosphatidylinositol 4,5-bisphosphate 3-kinase catalytic subunit alpha isoform (Homo sapiens), P42336 [C420R]; conditions: Compound concentration 1000.0 nM
[8] = test system: Mast/stem cell growth factor receptor Kit (Homo sapiens), P10721 [V559D,V654A]; conditions: Compound concentration 1000.0 nM
[9] = target: Transient receptor potential cation channel subfamily M member 6 (Homo sapiens) (UniProt Q9BX84); conditions: Compound concentration 1000.0 nM
[10] = target: Calcium/calmodulin-dependent protein kinase kinase 1 (Homo sapiens) (UniProt Q8N5S9); conditions: Compound concentration 1000.0 nM
[11] = target: Cyclin-dependent kinase 4 (Homo sapiens) (UniProt P11802); conditions: Compound concentration 1000.0 nM
[12] = test system: Mast/stem cell growth factor receptor Kit (Homo sapiens), P10721 [D816V]; conditions: Compound concentration 1000.0 nM
[13] = target: Serine/threonine-protein kinase Sgk3 (Homo sapiens) (UniProt Q96BR1); conditions: Compound concentration 1000.0 nM
[14] = target: Delta-type opioid receptor (Homo sapiens, UniProt P41143); assay: GPCRScan assay: inhibition of DOR; parameters: radioligand conc. used [nm] 1.0 – 2.0, parental cells stable HEK
[15] = target: Phosphatidylinositol 5-phosphate 4-kinase type-2 gamma (Homo sapiens) (UniProt Q8TBX8); conditions: Compound concentration 1000.0 nM
[16] = target: Cyclin-dependent kinase-like 3 (Homo sapiens) (UniProt Q8IVW4); conditions: Compound concentration 1000.0 nM
[17] = target: Cyclin-dependent kinase-like 2 (Homo sapiens) (UniProt Q92772); conditions: Compound concentration 1000.0 nM
[18] = target: Phosphatidylinositol 4-phosphate 5-kinase type-1 alpha (Homo sapiens) (UniProt Q99755); conditions: Compound concentration 1000.0 nM
[19] = target: Casein kinase II subunit alpha' (Homo sapiens) (UniProt P19784); conditions: Compound concentration 1000.0 nM
[20] = target: 5-hydroxytryptamine receptor 1D (Homo sapiens) (UniProt P28221); conditions: Compound concentration 10.0 uM
[21] = target: Casein kinase I isoform alpha (Homo sapiens) (UniProt P48729); conditions: Compound concentration 1000.0 nM
[22] = target: Ephrin type-A receptor 1 (Homo sapiens) (UniProt P21709); conditions: Compound concentration 1000.0 nM
[23] = target: Dual specificity tyrosine-phosphorylation-regulated kinase 1B (Homo sapiens) (UniProt Q9Y463); conditions: Compound concentration 1000.0 nM
[24] = target: Phosphorylase b kinase gamma catalytic chain, skeletal muscle/heart isoform (Homo sapiens) (UniProt Q16816); conditions: Compound concentration 1000.0 nM
[25] = target: Serine/threonine-protein kinase D1 (Homo sapiens) (UniProt Q15139); conditions: Compound concentration 1000.0 nM
[26] = target: Inhibitor of nuclear factor kappa-B kinase subunit epsilon (Homo sapiens) (UniProt Q14164); conditions: Compound concentration 1000.0 nM
[27] = target: T2, 5-hydroxytryptamine receptor 3A (Homo sapiens) (UniProt P46098); conditions: Compound concentration 10.0 uM
T2 sequence (whole entry): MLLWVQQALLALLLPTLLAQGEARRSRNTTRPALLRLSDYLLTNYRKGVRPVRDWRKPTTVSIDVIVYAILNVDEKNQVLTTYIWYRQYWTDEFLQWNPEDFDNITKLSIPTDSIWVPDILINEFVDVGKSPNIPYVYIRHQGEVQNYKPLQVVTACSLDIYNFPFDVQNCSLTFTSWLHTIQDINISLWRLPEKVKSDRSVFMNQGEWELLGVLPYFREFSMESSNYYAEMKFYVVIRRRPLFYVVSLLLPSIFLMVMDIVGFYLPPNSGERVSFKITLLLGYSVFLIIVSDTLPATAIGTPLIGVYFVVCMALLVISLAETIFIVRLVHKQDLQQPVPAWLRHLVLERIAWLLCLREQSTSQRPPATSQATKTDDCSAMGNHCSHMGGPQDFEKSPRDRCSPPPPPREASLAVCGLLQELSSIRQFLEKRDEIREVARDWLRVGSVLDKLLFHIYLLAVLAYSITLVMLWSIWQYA

[28] = target: Fibroblast growth factor receptor 4 (Homo sapiens) (UniProt P22455); conditions: Compound concentration 1000.0 nM
[29] = target: Cyclin-dependent kinase 15 (Homo sapiens) (UniProt Q96Q40); conditions: Compound concentration 1000.0 nM
[30] = target: Tyrosine-protein kinase Fgr (Homo sapiens) (UniProt P09769); conditions: Compound concentration 1000.0 nM
[31] = target: Serine/threonine-protein kinase SIK2 (Homo sapiens) (UniProt Q9H0K1); conditions: Compound concentration 1000.0 nM
[32] = target: Interferon-induced, double-stranded RNA-activated protein kinase (Homo sapiens) (UniProt P19525); conditions: Compound concentration 1000.0 nM
Sequence of Interferon-induced, double-stranded RNA-activated protein kinase (Homo sapiens) (P19525 whole entry): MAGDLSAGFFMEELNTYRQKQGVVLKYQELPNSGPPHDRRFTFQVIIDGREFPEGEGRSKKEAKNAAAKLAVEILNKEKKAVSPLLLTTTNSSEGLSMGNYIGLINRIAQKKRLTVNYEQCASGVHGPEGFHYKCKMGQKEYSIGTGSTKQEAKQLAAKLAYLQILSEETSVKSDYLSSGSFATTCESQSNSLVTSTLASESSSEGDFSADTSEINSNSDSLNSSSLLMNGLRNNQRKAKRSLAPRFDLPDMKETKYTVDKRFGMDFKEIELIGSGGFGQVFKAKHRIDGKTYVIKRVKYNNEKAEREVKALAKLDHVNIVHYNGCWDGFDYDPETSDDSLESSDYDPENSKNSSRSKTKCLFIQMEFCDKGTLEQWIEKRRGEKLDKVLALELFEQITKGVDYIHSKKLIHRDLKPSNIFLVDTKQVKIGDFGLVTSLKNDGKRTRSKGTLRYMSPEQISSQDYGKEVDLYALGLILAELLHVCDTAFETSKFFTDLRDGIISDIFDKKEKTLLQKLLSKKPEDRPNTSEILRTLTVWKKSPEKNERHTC

Sequence of Serine/threonine-protein kinase SIK2 (Homo sapiens) (Q9H0K1 whole entry, looked up): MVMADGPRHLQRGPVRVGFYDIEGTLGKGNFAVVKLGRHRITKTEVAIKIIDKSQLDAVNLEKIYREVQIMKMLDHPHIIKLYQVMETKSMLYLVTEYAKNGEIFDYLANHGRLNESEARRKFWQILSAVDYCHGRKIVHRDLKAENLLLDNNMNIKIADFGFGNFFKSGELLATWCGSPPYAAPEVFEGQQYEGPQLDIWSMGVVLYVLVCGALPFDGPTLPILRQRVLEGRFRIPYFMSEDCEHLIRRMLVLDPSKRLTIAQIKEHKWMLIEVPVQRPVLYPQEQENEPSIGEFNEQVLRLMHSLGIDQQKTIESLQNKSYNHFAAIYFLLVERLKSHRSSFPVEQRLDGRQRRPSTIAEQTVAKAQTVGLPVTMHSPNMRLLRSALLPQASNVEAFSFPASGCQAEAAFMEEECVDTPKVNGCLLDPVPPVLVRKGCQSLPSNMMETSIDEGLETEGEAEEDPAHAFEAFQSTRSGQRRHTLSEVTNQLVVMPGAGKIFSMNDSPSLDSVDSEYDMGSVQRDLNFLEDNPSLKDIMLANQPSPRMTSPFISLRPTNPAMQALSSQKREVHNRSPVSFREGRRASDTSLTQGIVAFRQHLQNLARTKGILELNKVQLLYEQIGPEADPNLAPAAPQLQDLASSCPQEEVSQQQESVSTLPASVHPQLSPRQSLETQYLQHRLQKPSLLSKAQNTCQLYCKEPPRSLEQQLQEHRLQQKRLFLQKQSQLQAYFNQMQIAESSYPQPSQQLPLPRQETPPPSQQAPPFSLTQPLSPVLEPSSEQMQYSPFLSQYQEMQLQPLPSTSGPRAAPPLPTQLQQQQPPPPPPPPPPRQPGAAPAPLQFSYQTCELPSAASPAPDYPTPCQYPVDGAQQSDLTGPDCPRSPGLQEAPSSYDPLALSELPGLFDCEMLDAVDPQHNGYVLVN
Sequence of Mast/stem cell growth factor receptor Kit (Homo sapiens), P10721 [D816V] (P10721 whole entry D816V): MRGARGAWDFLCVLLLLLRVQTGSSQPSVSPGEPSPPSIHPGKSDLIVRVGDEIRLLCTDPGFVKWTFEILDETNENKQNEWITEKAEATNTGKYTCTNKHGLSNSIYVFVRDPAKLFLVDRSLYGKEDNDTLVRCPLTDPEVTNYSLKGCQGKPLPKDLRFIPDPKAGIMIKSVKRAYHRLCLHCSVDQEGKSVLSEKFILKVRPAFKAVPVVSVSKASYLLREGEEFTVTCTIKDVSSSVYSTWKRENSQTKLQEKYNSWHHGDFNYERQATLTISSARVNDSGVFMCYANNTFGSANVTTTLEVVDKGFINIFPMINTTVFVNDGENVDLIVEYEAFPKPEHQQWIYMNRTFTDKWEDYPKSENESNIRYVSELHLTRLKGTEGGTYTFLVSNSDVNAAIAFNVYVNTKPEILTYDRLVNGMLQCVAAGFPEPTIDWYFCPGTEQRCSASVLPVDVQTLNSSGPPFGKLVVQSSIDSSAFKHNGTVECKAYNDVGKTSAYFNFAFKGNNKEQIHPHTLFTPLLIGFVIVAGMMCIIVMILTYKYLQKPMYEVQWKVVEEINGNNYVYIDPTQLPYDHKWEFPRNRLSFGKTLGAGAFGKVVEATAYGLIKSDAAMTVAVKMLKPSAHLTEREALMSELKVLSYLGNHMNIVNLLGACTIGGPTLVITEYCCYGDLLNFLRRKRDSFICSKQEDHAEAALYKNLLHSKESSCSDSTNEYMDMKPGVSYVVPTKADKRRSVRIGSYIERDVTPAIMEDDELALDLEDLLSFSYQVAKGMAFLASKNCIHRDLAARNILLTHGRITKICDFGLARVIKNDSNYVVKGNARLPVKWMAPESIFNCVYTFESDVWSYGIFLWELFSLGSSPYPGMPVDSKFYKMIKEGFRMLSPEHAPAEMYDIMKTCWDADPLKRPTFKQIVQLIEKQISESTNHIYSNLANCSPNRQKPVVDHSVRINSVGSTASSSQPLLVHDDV
Sequence of Fibroblast growth factor receptor 4 (Homo sapiens) (P22455 22-802 limits assumed): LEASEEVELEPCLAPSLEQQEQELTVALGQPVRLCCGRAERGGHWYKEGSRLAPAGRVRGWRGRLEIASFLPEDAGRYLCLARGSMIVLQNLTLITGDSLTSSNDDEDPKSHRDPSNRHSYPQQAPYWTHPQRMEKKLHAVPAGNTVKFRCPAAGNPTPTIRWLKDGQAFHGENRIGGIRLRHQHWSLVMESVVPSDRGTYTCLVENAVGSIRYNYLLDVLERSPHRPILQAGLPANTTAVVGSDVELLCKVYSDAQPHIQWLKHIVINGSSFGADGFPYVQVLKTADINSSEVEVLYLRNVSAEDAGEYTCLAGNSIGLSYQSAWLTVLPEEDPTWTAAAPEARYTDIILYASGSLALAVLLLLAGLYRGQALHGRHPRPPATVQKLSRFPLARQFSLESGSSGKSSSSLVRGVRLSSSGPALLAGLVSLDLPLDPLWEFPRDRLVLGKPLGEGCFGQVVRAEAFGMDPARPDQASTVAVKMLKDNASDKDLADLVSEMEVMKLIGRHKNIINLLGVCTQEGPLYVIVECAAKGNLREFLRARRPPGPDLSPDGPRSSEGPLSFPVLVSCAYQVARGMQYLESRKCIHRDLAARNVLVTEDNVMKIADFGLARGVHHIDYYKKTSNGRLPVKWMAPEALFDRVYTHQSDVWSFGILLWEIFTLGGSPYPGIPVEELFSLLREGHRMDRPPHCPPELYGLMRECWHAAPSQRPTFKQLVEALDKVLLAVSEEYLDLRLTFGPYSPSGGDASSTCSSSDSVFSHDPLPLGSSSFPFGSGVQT
Sequence of Serine/threonine-protein kinase D1 (Homo sapiens) (Q15139 whole entry): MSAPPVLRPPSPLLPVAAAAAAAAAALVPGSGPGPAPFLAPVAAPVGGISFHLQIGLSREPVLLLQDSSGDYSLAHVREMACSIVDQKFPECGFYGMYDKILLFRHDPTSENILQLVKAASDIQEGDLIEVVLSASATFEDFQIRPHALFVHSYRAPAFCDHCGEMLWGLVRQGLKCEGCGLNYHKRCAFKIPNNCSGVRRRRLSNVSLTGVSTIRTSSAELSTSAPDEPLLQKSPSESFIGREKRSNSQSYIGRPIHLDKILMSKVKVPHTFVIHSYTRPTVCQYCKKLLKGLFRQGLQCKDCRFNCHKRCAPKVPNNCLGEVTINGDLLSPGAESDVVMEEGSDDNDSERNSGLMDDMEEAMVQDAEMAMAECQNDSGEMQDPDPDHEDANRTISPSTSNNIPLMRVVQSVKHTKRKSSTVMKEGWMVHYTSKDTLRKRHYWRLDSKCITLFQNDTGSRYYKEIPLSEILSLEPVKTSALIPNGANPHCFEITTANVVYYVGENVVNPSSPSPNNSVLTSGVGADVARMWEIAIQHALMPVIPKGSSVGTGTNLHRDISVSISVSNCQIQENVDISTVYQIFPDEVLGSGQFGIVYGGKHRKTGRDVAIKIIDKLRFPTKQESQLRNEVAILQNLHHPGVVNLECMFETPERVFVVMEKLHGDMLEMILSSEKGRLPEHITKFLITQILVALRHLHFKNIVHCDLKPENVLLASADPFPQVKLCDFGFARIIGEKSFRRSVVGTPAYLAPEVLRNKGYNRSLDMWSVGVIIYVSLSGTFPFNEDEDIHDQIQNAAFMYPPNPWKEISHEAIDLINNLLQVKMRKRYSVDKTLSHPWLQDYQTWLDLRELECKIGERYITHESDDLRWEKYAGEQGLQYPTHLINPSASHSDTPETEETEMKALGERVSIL
Sequence of Casein kinase II subunit alpha' (Homo sapiens) (P19784 whole entry, looked up): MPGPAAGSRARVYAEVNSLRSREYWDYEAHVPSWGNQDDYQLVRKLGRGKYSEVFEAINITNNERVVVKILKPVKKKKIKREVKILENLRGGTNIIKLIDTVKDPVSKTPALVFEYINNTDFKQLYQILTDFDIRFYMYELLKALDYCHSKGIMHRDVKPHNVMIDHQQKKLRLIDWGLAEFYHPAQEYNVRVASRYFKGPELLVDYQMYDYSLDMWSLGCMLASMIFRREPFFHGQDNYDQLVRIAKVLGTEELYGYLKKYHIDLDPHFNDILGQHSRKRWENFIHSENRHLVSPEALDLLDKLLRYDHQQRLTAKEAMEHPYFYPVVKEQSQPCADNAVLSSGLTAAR
Sequence of Activin receptor type-2A (Homo sapiens) (P27037 whole entry): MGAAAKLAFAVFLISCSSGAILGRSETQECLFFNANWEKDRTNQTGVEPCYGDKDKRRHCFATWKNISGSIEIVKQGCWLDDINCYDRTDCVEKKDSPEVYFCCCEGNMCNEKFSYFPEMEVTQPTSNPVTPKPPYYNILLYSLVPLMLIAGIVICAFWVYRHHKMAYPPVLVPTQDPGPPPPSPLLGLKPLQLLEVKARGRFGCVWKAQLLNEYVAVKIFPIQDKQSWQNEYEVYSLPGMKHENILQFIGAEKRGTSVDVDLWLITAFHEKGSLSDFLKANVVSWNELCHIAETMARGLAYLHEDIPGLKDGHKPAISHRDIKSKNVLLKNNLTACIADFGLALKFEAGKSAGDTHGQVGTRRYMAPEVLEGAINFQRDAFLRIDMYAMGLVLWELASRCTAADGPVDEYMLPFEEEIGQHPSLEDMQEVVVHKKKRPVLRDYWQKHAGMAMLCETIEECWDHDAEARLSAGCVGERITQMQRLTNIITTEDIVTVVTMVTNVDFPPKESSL

CN(C)CC#Cc1ccc(OCCCc2sc(N3CCc4cccc(C(=O)Nc5nc6ccccc6s5)c4C3)nc2C(=O)O)c(F)c1 [A-1155463]
inactive: inhibition [1] 7.32% | residual activity [2] 96% | residual activity [3] 97% | residual activity [4] 94% | residual activity [5] 81% | residual activity [6] 100% | residual activity [7] 100% | residual activity [8] 78% | residual activity [9] 84% | residual activity [10] 87% | residual activity [11] 100% | residual activity [12] 100% | residual activity [13] 100% | residual activity [15] 100% | residual activity [16] 100% | residual activity [17] 98% | residual activity [18] 100% | residual activity [19] 100% | inhibition [20] 34.5% | residual activity [21] 71% | residual activity [22] 100% | residual activity [23] 87% | residual activity [24] 98% | residual activity [25] 100% | residual activity [26] 100% | residual activity [28] 100% | residual activity [29] 100% | residual activity [30] 100% | residual activity [31] 96% | residual activity [32] 100%
2120 nM: Ki [14]
active: inhibition [27] 85.4%
